# Reference: patent publication US8252781B2, “1,2-diazetidin-3-one derivatives and drugs containing same” (Kowa Company, Ltd., priority 2008, dated 2012)
# Where two headings read alike, the source gives them in different places.
# Legend:
# human 11β-HSD1 = target: T1, human 11β-HSD1 (Homo sapiens, UniProt P28845); experiment: Enzyme inhibitory activity, human 11β-HSD1 (lysate of stably expressing HEK293 cells, cortisol by competitive ELISA); type: biochemical; conditions: human 11β-HSD1, cell lysate, 37° C. for 1 hour, read-out: h HSD1 in vitro assay (IC50 uM)
# T1 construct: The obtained PCR products of about 0.9 kbp, 1.2 kbp, and 0.9 kbp were subcloned into an expression vector pcDNA3.1+/Zeo; expressed in transfected cells
# T1 sequence (P28845 whole entry): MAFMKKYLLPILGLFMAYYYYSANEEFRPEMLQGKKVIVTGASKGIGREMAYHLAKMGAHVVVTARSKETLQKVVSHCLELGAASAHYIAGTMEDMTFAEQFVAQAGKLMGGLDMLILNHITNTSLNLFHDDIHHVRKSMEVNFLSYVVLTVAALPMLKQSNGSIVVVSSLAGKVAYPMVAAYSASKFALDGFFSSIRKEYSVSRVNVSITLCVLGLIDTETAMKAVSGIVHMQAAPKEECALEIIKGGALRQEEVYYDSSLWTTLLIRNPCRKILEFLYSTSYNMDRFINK
# Procedure: (§1) 1. Human 11β-HSD1-, Human 11β-HSD2- and Mouse 11β-HSD1-Gene Clonings and Establishment of Stably Expressing Cells
# (§2) Human 11β-HSD1-, human 11β-HSD2-, and mouse 11β-HSD1-gene clonings were conducted using as a template a reverse transcription product of human-liver RNA, human-kidney RNA (CELL APPLICATIONS), and mouse-kidney RNA respectively, by means of PCR cloning with reference to nucleotide sequences of Genbank Accession Nos. NM_005525, NM_000196, and NM_008288. The obtained PCR products of about 0.9 kbp, 1.2 kbp, and 0.9 kbp were subcloned into an expression vector pcDNA3.1+/Zeo (Invitrogen).
# (§3) Human 11β-HSD1- and human 11β-HSD2-expressing vectors were transfected into human kidney-derived cell line, HEK293 cells, using a transfection reagent, jet PEI (Funakoshi). Mouse 11β-HSD1 was transfected to Chinese hamster ovary-derived cell line, CHO-K1 cells. Selection was conducted with 200-400 μg/mL of zeocine (Invitrogen) to provide stably expressing-cell clones. The stably expressing cells were suspended in buffer solution A (20 mmol/L Tris-HCl, pH 7.4, 250 mmol/L sucrose, 1 mmol/L EGTA, 1 mmol/L EDTA, 1 mmol/L MgCl2), sonicated, and then stored at −80° C.
# (§4) 2. Assay of Enzyme Inhibitory Activity
# (§5) An enzymatic reaction was conducted using a polystyrene 96-well plate. Each well was added with 1 μL of a test agent dissolved in DMSO and then diluted (0.003 to 3 mmol/L), and further added with 10 μL of cell lysate diluted to a concentration of 0.1 mg/mL to 0.4 mg/mL. Next, 90 μL of buffer solution A containing substrate (100 nmol/L cortisone or cortisol) and coenzyme (400 μmol/L NADPH or NAD+) was added and the mixture was incubated at 37° C. for 1 hour. The enzymatic reaction was stopped by treating at 95° C. for 3 minutes. Cortisol that was present in the reaction solution was determined by a competitive ELISA shown below.
# (§6) Anti-rabbit IgG antibody (Chemi-con) diluted to 2 μg/mL with carbonate buffer solution (pH 9.6) was added in 100 μL each to a 96-well immuno plate (Nunc) and immobilized by an incubation at 4° C. overnight. 50 μL of enzymatic reaction solution was put onto the plates, and further, anti-cortisol antibody (Cosmo Bio) and HRP-labeled cortisol (Cosmo Bio), diluted with buffer solution B (25 mmol/L Tris-HCl pH 7.4, 137 mmol/L NaCl, 2.68 mmol/L KCl), were added in 50 μL respectively and incubated at 4° C. overnight. After washed three times with buffer solution B containing 0.05% Tween 20, the plates were allowed to develop color by adding 100 μL of color reagent, TMB (Moss). The color reaction was stopped by 25 μL of 1 mol/L sulfuric acid and the absorbance was determined at 450 nm with a microplate reader (Molecular Device, VersaMax).
# (§7) The values of human 11β-HSD1, human 11β-HSD2, and mouse 11β-HSD1 activities were subtracted from 100, and the resultant values were regarded as the respective 11β-HSD inhibition rates of example compounds. […] The comparison of human 11β-HSD1 and human 11β-HSD2 inhibiting activities is shown in Table 1, and the comparison of human 11β-HSD1 and mouse 11β-HSD1 inhibiting activities is shown in Table 2.
# mouse 11β-HSD1 = target: T2, mouse 11β-HSD1 (Mus musculus, UniProt P50172); experiment: Enzyme inhibitory activity, mouse 11β-HSD1 (lysate of stably expressing CHO-K1 cells, cortisol by competitive ELISA); type: biochemical; conditions: Table 2; mouse 11β-HSD1, cell lysate, 37° C. for 1 hour; read-out: m HSD1 in vitro assay (IC50 uM)
# T2 construct: The obtained PCR products of about 0.9 kbp, 1.2 kbp, and 0.9 kbp were subcloned into an expression vector pcDNA3.1+/Zeo; expressed in transfected cells
# T2 sequence (P50172 whole entry): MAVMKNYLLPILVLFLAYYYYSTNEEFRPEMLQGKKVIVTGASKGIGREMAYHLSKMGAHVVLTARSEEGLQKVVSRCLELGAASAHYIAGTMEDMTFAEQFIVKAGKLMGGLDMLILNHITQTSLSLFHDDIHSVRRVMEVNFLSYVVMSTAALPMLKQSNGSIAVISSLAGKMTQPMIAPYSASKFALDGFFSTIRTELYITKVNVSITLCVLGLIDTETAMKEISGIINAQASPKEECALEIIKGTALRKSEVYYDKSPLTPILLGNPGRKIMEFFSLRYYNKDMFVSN
# Procedure: as §1, §2, §3, §4, §5, §6, §7
Structure (SMILES),IC50 (human 11β-HSD1; Table 2) [µM],IC50 (mouse 11β-HSD1) [µM],IC50 (human 11β-HSD1; Table 1) [µM]
"CC1(C)C(=O)N([C@H]2C3CC4CC2C[C@](O)(C4)C3)N1Cc1cc(F)ccc1Cl [Example 67, trans-1-(2-chloro-5-fluorobenzyl)-2-(5-hydroxyadamantan-2-yl)-4,4-dimethyl-1,2-diazetidin-3-one]",0.12,0.29,
"CC1(C)C(=O)N(C2CCCCCCC2)N1Cc1ccccc1Cl [Example 73, 1-(2-chlorobenzyl)-2-cyclooctyl-4,4-dimethyl-1,2-diazetidin-3-one]",0.021,0.11,
"CC1(C)C(=O)N(C2CCCCCCC2)N1Cc1cc(Cl)ccc1Cl [Example 75, 2-cyclooctyl-1-(2,5-dichlorobenzyl)-4,4-dimethyl-1,2-diazetidin-3-one]",0.038,0.15,
"CC1(C)C(=O)N(C2CC3CCC2C3)N1Cc1ccccc1Cl (stereo not shown) [Example 78, 2-(bicyclo[2.2.1]heptan-2-yl)-1-(2-chlorobenzyl)-4,4-dimethyl-1,2-diazetidin-3-one]",0.15,0.64,
"CC1(C)C(=O)N(C2CC3CCC2C3)N1Cc1cccc(Cl)c1Cl (stereo not shown) [Example 79, 2-(bicyclo[2.2.1]heptan-2-yl)-1-(2,3-dichlorobenzyl)-4,4-dimethyl-1,2-diazetidin-3-one]",0.22,0.36,
"CC1(C)C(=O)N(C2CC3CCC2C3)N1Cc1cc(Cl)ccc1Cl (stereo not shown) [Example 80, 2-(bicyclo[2.2.1]heptan-2-yl)-1-(2,5-dichlorobenzyl)-4,4-dimethyl-1,2-diazetidin-3-one]",0.13,0.39,
"CC1(C)C(=O)N(C2CCCCCC2)N1Cc1ccccc1Cl [Example 83, 1-(2-chlorobenzyl)-2-cycloheptyl-4,4-dimethyl-1,2-diazetidin-3-one]",0.092,0.66,
"CC1(C)C(=O)N(C2CCCCCC2)N1Cc1cccc(Cl)c1Cl [Example 84, 2-cycloheptyl-1-(2,3-dichlorobenzyl)-4,4-dimethyl-1,2-diazetidin-3-one]",0.13,0.61,
"CC1(C)C(=O)N(C2CCCCCC2)N1Cc1cc(Cl)ccc1Cl [Example 85, 2-cycloheptyl-1-(2,5-dichlorobenzyl)-4,4-dimethyl-1,2-diazetidin-3-one]",0.053,0.37,
"CC1(C)C(=O)N(C2CCCCCC2)N1Cc1ccc(F)cc1Cl [Example 86, 1-(2-chloro-4-fluorobenzyl)-2-cycloheptyl-4,4-dimethyl-1,2-diazetidin-3-one]",0.14,0.49,
"CC1(C)C(=O)N(C2CCCCCC2)N1Cc1cc(F)ccc1Cl [Example 87, 1-(2-chloro-5-fluorobenzyl)-2-cycloheptyl-4,4-dimethyl-1,2-diazetidin-3-one]",0.1,0.85,
"CC1(C)C(=O)N(C2C3CC4CC2CC(C(N)=O)(C4)C3)N1Cc1ccccc1Cl (stereo not shown) [Example 95, 4-[2-(2-chlorobenzyl)-3,3-dimethyl-4-oxo-1,2-diazetidin-1-yl]adamantane-1-carboxamide]",0.13,0.35,
"CC1(C)C(=O)N(C2C3CC4CC(C3)CC2C4)N1C(=O)c1ccccc1 (stereo not shown) [Example 96, 4,4-dimethyl-1-(phenylcarbonyl)-2-(adamantan-2-yl)-1,2-diazetidin-3-one]",0.8,0.22,
"CC1(C)C(=O)N(C2C3CC4CC(C3)CC2C4)N1C(=O)c1ccc(Br)cc1 (stereo not shown) [Example 106, 1-[(4-bromophenyl)carbonyl]-4,4-dimethyl-2-(adamantan-2-yl)-1,2-diazetidin-3-one]",0.75,0.17,
"Cc1cccc(C(=O)N2N(C3C4CC5CC(C4)CC3C5)C(=O)C2(C)C)c1 (stereo not shown) [Example 109, 4,4-dimethyl-1-[(3-methylphenyl)carbonyl]-2-(adamantan-2-yl)-1,2-diazetidin-3-one]",0.75,0.2,
"CC1(C)C(=O)N(C2C3CC4CC(C3)CC2C4)N1C(=O)c1cccc(Br)c1 (stereo not shown) [Example 113, 1-[(3-bromophenyl)carbonyl]-4,4-dimethyl-2-(adamantan-2-yl)-1,2-diazetidin-3-one]",0.42,0.12,
"Cc1ccc(C(=O)N2N(C3C4CC5CC(C4)CC3C5)C(=O)C2(C)C)cc1 (stereo not shown) [Example 114, 4,4-dimethyl-1-[(4-methylphenyl)carbonyl]-2-(adamantan-2-yl)-1,2-diazetidin-3-one]",0.54,0.11,
"Cc1ccccc1C(=O)N1N(C2C3CC4CC(C3)CC2C4)C(=O)C1(C)C (stereo not shown) [Example 116, 4,4-dimethyl-1-[(2-methylphenyl)carbonyl]-2-(adamantan-2-yl)-1,2-diazetidin-3-one]",,0.15,0.13
"CC1(C)C(=O)N(C2C3CC4CC(C3)CC2C4)N1C(=O)c1cc(Cl)cc(Cl)c1 (stereo not shown) [Example 117, 1-[(3,5-dichlorophenyl)carbonyl]-4,4-dimethyl-2-(adamantan-2-yl)-1,2-diazetidin-3-one]",0.98,0.39,
"Cc1ccc(F)cc1C(=O)N1N(C2C3CC4CC(C3)CC2C4)C(=O)C1(C)C (stereo not shown) [Example 125, 1-[(5-fluoro-2-methylphenyl)carbonyl]-4,4-dimethyl-2-(adamantan-2-yl)-1,2-diazetidin-3-one]",,0.42,0.47

# Further lines, results first:
IC50 (human 11β-HSD1; Table 2) [µM],IC50 (mouse 11β-HSD1) [µM],IC50 (human 11β-HSD1; Table 1) [µM],Structure (SMILES)
,0.1,0.5,"CC1(C)C(=O)N(C2C3CC4CC(C3)CC2C4)N1C(=O)c1cccc(Cl)c1 (stereo not shown) [Example 128, 1-[(3-chlorophenyl)carbonyl]-4,4-dimethyl-2-(adamantan-2-yl)-1,2-diazetidin-3-one]"
0.76,0.11,,"CC1(C)C(=O)N(C2C3CC4CC(C3)CC2C4)N1C(=O)c1ccc2c(c1)OCO2 (stereo not shown) [Example 135, 1-(1,3-benzodioxol-5-ylcarbonyl)-4,4-dimethyl-2-(adamantan-2-yl)-1,2-diazetidin-3-one]"
,0.24,0.22,"CC1(C)C(=O)N(C2C3CC4CC(C3)CC2C4)N1C(=O)c1ccccc1O (stereo not shown) [Example 138, 1-[(2-hydroxyphenyl)carbonyl]-4,4-dimethyl-2-(adamantan-2-yl)-1,2-diazetidin-3-one]"
,0.36,0.79,"CC1(C)C(=O)N(C2C3CC4CC(C3)CC2C4)N1C(=O)c1ccc(N)cc1 (stereo not shown) [Example 139, 1-[(4-aminophenyl)carbonyl]-4,4-dimethyl-2-(adamantan-2-yl)-1,2-diazetidin-3-one]"
,0.43,0.84,"CC1(C)C(=O)N(C2CCCCCCC2)N1C(=O)c1cccc(Cl)c1 [Example 150, 1-[(3-chlorophenyl)carbonyl]-2-cyclooctyl-4,4-dimethyl-1,2-diazetidin-3-one]"
,0.3,0.81,"Cc1cccc(C(=O)N2N(C3CCCCCCC3)C(=O)C2(C)C)c1 [Example 151, 2-cyclooctyl-4,4-dimethyl-1-[(3-methylphenyl)carbonyl]-1,2-diazetidin-3-one]"
,0.54,0.23,"Cc1ccccc1C(=O)N1N(C2CCCCCCC2)C(=O)C1(C)C [Example 152, 2-cyclooctyl-4,4-dimethyl-1-[(2-methylphenyl)carbonyl]-1,2-diazetidin-3-one]"
,0.032,0.14,"CC1(C)C(=O)N(C2CCCCCCC2)N1C(=O)c1ccccc1N [Example 153, 1-[(2-aminophenyl)carbonyl]-2-cyclooctyl-4,4-dimethyl-1,2-diazetidin-3-one]"
,0.15,0.44,"Cc1c(F)cccc1C(=O)N1N(C2C3CC4CC(C3)CC2C4)C(=O)C1(C)C (stereo not shown) [Example 157, 1-[(3-fluoro-2-methylphenyl)carbonyl]-4,4-dimethyl-2-(adamantan-2-yl)-1,2-diazetidin-3-one]"
